In PubChem BioAssay AID248 (DTP/NCI, 2004):
“And” between values parts separate entries of the source, which are not always exact repeats. Identical values can stand only once. Inconclusive results and toxic doses are left out. Rule as the data show it: active = T/C of 150% or more; inactive = T/C below 125%.

System: L1210 leukemia ip in BDF1 mice, survival T/C
Experiment: NCI In Vivo Anticancer Drug Screen. Data for tumor model L1210 Leukemia (intraperitoneal) in B6D2F1 (BDF1) mice
Settings: endpoint: mean survival time, higher = longer survival
Procedure, shortened: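 Transplantable tumor model; survival measured in treated vs vehicle control mice. Value = treated/control.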

[1] = dose: 100.0 mg/kg/injection, schedule: Q04DX003 (ip), vehicle: saline with Tween-80
[2] = dose: 200.0 mg/kg/injection, schedule: Q04DX003 (ip), vehicle: saline with Tween-80
[3] = dose: 400.0 mg/kg/injection, schedule: Q04DX003 (ip), vehicle: saline with Tween-80
[4] = dose: 100.0 mg/kg/injection, schedule: Q01DX001 (ip), vehicle: saline
[5] = dose: 200.0 mg/kg/injection, schedule: Q01DX001 (ip), vehicle: saline
[6] = dose: 400.0 mg/kg/injection, schedule: Q01DX001 (ip), vehicle: saline
[7] = dose: 100.0 mg/kg/injection, schedule: Q01DX001 (ip), vehicle: carboxymethylcellulose (CMC)
[8] = dose: 100.0 mg/kg/injection, schedule: Q01DX009 (ip), vehicle: saline
[9] = dose: 400.0 mg/kg/injection, schedule: Q01DX009 (ip), vehicle: saline
[10] = dose: 100.0 mg/kg/injection, schedule: Q01DX009 (ip), vehicle: Klucel (hydroxypropylcellulose) (HPC)
[11] = dose: 200.0 mg/kg/injection, schedule: Q01DX009 (ip), vehicle: Klucel (hydroxypropylcellulose) (HPC)
[12] = dose: 400.0 mg/kg/injection, schedule: Q01DX009 (ip), vehicle: Klucel (hydroxypropylcellulose) (HPC)
[13] = dose: 100.0 mg/kg/injection, schedule: Q04DX002 (ip), vehicle: Klucel (hydroxypropylcellulose) (HPC)
[14] = dose: 100.0 mg/kg/injection, schedule: Q01DX009 (ip), vehicle: saline with Tween-80

Measured: T/C

O=CNC(CSSCC(NC=O)C(=O)O)C(=O)O (configuration not stated)
inactive: [1] 101 % of control | [2] 103 % of control | [3] 90 % of control

ClC1(Cl)c2ccccc2-c2ccccc21
inactive: [4] 103 % of control | [5] 113 % of control | [6] 110 % of control

COc1cc2c(C)cc(=O)oc2cc1O
inactive: [7] 98 % of control | dose: 400.0 mg/kg/injection, schedule: Q01DX001 (ip), vehicle: carboxymethylcellulose (CMC) 93 % of control

O=P(CCCCCCP(=O)(N1CC1)N1CC1)(N1CC1)N1CC1
inactive: dose: 25.0 mg/kg/injection, schedule: Q01DX009 (ip), vehicle: carboxymethylcellulose (CMC) 112 % of control and 115 % of control | dose: 50.0 mg/kg/injection, schedule: Q01DX009 (ip), vehicle: carboxymethylcellulose (CMC) 120 % of control and 121 % of control | [7] 116 % of control | dose: 200.0 mg/kg/injection, schedule: Q01DX001 (ip), vehicle: carboxymethylcellulose (CMC) 103 % of control | dose: 200.0 mg/kg/injection, schedule: Q01DX009 (ip), vehicle: carboxymethylcellulose (CMC) 98 % of control and 101 % of control

CNC(=O)c1cn(C2OC(CO)C(O)C2O)c2ncnc(N)c12 (configuration not stated)
inactive: dose: 88.0 mg/kg/injection, schedule: Q01DX001 (ip), vehicle: water 120 % of control | dose: 400.0 mg/kg/injection, schedule: Q01DX001 (ip), vehicle: water 117 % of control

O=C(OCC(O)C1OC(c2ccccc2)OC1C(O)COC(=O)c1ccccc1)c1ccccc1 (configuration not stated)
inactive: dose: 50.0 mg/kg/injection, schedule: Q04DX003 (ip), vehicle: saline with Tween-80 102 % of control | [1] 92 % of control and 91 % of control | [2] 105 % of control | [3] 89 % of control

CC(=O)NCC(C)C
inactive: [8] 101 % of control | dose: 200.0 mg/kg/injection, schedule: Q01DX009 (ip), vehicle: saline 108 % of control | [9] 105 % of control

CCOc1ccc(C2NC(=O)c3ccccc3N2)cc1 (configuration not stated)
inactive: [10] 104 % of control | dose: 100.0 mg/kg/injection, schedule: Q04DX003 (ip), vehicle: Klucel (hydroxypropylcellulose) (HPC) 91 % of control | [11] 97 % of control | dose: 200.0 mg/kg/injection, schedule: Q04DX003 (ip), vehicle: Klucel (hydroxypropylcellulose) (HPC) 98 % of control | [12] 97 % of control | dose: 400.0 mg/kg/injection, schedule: Q04DX003 (ip), vehicle: Klucel (hydroxypropylcellulose) (HPC) 98 % of control

NC(=O)CNC(c1ccccc1)C(O)c1ccccc1 (configuration not stated)
inactive: [10] 96 % of control | [13] 91 % of control | [11] 98 % of control | dose: 200.0 mg/kg/injection, schedule: Q04DX002 (ip), vehicle: Klucel (hydroxypropylcellulose) (HPC) 102 % of control | [12] 93 % of control | dose: 400.0 mg/kg/injection, schedule: Q04DX002 (ip), vehicle: Klucel (hydroxypropylcellulose) (HPC) 102 % of control

CCCCCCCCCCCCCCCCC/C=N/Nc1nnc(N/N=C/CCCCCCCCCCCCCCCCC)c2ccccc12
inactive: dose: 50.0 mg/kg/injection, schedule: Q01DX001 (ip), vehicle: saline 95 % of control | [4] 103 % of control | [5] 101 % of control | [6] 101 % of control

COc1ccc(C=Nc2ccccc2)cc1
inactive: [1] 103 % of control | [2] 97 % of control | [3] 97 % of control

CC(C)(CCC(=O)O)[N+](=O)[O-]
inactive: dose: 50.0 mg/kg/injection, schedule: Q04DX003 (ip), vehicle: saline 106 % of control | dose: 100.0 mg/kg/injection, schedule: Q04DX003 (ip), vehicle: saline 105 % of control | dose: 200.0 mg/kg/injection, schedule: Q04DX003 (ip), vehicle: saline 101 % of control

CS(=O)(=O)OCCN(CCOS(C)(=O)=O)c1ccc(C=Nc2ccc(-c3csc(-c4ccc(Br)cc4)n3)cc2)cc1
inactive: dose: 25.0 mg/kg/injection, schedule: Q01DX009 (ip), vehicle: Klucel (hydroxypropylcellulose) (HPC) 124 % of control | dose: 50.0 mg/kg/injection, schedule: Q01DX009 (ip), vehicle: Klucel (hydroxypropylcellulose) (HPC) 114 % of control

O=C(c1ccccc1)C1(Br)CCCCC1
inactive: [10] 96 % of control | [8] 95 % of control | [11] 96 % of control | [12] 93 % of control | [9] 101 % of control

NC(=S)N/N=C/c1cc(-c2cccc(N)c2)ccn1
inactive: dose: 6.25 mg/kg/injection, schedule: Q01DX009 (ip), vehicle: saline with Tween-80 112 % of control | dose: 12.5 mg/kg/injection, schedule: Q01DX009 (ip), vehicle: saline with Tween-80 114 % of control | dose: 25.0 mg/kg/injection, schedule: Q01DX009 (ip), vehicle: saline with Tween-80 114 % of control | dose: 50.0 mg/kg/injection, schedule: Q01DX009 (ip), vehicle: saline with Tween-80 111 % of control | [14] 114 % of control

O=C1/C(=C/c2ccc(Br)cc2)Cc2ccccc21
inactive: dose: 100.0 mg/kg/injection, schedule: Q04DX002 (ip), vehicle: saline with Tween-80 94 % of control | dose: 200.0 mg/kg/injection, schedule: Q04DX002 (ip), vehicle: saline with Tween-80 90 % of control | dose: 400.0 mg/kg/injection, schedule: Q04DX002 (ip), vehicle: saline with Tween-80 90 % of control

COc1ccc2[nH]c3cc(Cl)ccc3c(=O)c2c1
inactive: [14] 91 % of control | dose: 200.0 mg/kg/injection, schedule: Q01DX009 (ip), vehicle: saline with Tween-80 88 % of control | dose: 400.0 mg/kg/injection, schedule: Q01DX009 (ip), vehicle: saline with Tween-80 86 % of control

CC(=O)OCCC/C(=C\c1cccc([N+](=O)[O-])c1)[N+](=O)[O-]
inactive: dose: 100.0 mg/kg/injection, schedule: Q01DX001 (ip), vehicle: other 111 % of control

O=C1OC(/C=C/c2ccccc2)=NC/1=C\c1cccc([N+](=O)[O-])c1
inactive: dose: 25.0 mg/kg/injection, schedule: Q04DX002 (ip), vehicle: Klucel (hydroxypropylcellulose) (HPC) 93 % of control | dose: 50.0 mg/kg/injection, schedule: Q04DX002 (ip), vehicle: Klucel (hydroxypropylcellulose) (HPC) 104 % of control | [13] 89 % of control

CC(=O)C1CCCC1=O (configuration not stated)
inactive: dose: 100.0 mg/kg/injection, schedule: Q01DX001 (ip), vehicle: acetone 103 % of control | dose: 100.0 mg/kg/injection, schedule: Q04DX003 (ip), vehicle: acetone 97 % of control | dose: 200.0 mg/kg/injection, schedule: Q01DX001 (ip), vehicle: acetone 97 % of control | dose: 200.0 mg/kg/injection, schedule: Q04DX003 (ip), vehicle: acetone 97 % of control | dose: 400.0 mg/kg/injection, schedule: Q01DX001 (ip), vehicle: acetone 95 % of control | dose: 400.0 mg/kg/injection, schedule: Q04DX003 (ip), vehicle: acetone 95 % of control
